Experimental findings from patent US9138512B2, “Implant with a surface layer having a topographic modification” (Biotronik AG, priority 2010, dated 2015) are described below.

SMILES strings stand for the structures.

Assay [1] deals with Human umbilical vein endothelial cells (HUVEC). Nature of the assay: Time to onset of spreading of HUVEC on substrates (time-lapse microscopy). To be noted: HUVEC on gratings A-10, 50 μM blebbistatin, 10 μM Y27632 or 30 μM ML-7 added 30 minutes before. Type of assay: cell-based. How it is done: To generate confluent monolayers cells were seeded on COC substrates at high density (60-70×10^4 cell/cm^2) as reported by Lampugnani et al. and cultured for three days. To measure the time to onset of spreading, cells were detached from a subconfluent cell culture and resuspended in pre-warmed medium without antibiotics. The cells were then counted, diluted to reach a concentration of 5×10^4 cells in 1 ml of medium and then seeded onto the substrates.
(§1) For contractility inhibition experiments during endothelial spreading, the cells were treated with DMSO (corresponding v/v), 30 μM ML-7, 10 μM Y27632 or 50 μM blebbistatin. The drugs were dissolved in DMSO (ML-7, blebbistatin) or in distilled water (Y27632) and added to the cells 30 minutes before starting the experiment.
Cell imaging was performed using an inverted Nikon-Ti wide-field microscope (Nikon, Jaw pan) equipped with an Orca R-2 CCD camera (Hamamatsu Photonics, Japan). After cell seeding, the topographic chip was placed under the microscope in an incubated chamber (Life Imaging Services, Switzerland), where temperature and CO2 concentration were maintained at 37° C. and 5%, respectively. Images were collected with a 20×, 0.45 NA long-distance objective (Plan Fluor, Nikon). Endothelial spreading on topographic substrates in topographic chips was recorded in parallel time-lapse movies for up to 6 different substrates (a flat control and five different gratings). Before starting the experiment, five non-overlapping positions were chosen within each substrate and stored in a position list. Immediately after cell seeding, the experiment was started to automatically acquire a differential interference contrast (DIC) image at each saved position with a time resolution of 1 minute for a total of one or two hours. Focal drift during the experiments was eliminated using the microscope's PFS autofocus system. At the end of the experiment, the resulting time-lapses were converted into a single 8 bit movie for each imaging field under analysis.
(§2) Collected movies were loaded into ImageJ (National Institutes of Health, USA) and analyzed as follows: In a first step, movies acquired on patterned substrates were filtered by Fast Fourier Transform (FFT). This procedure eliminates the scattering generated by the gratings. The time to onset of spreading on the respective substrates was then measured for each cell detected within all parallel time-lapses acquired. […] A mean time to onset of spreading was calculated for each substrate under analysis by averaging the values measured for all individual cells. HUVEC alignment to the gratings was measured for all cells detected in the last frame of each recorded movie. […]

The test system is the same in assay [2]. Description: HUVEC alignment to the gratings (contact guidance). The following applies: HUVEC on gratings A-10; 50 μM blebbistatin or 10 μM Y27632. Type of assay: cell-based. How it is done:
as §1
Cell imaging was performed using an inverted Nikon-Ti wide-field microscope (Nikon, Jaw pan) equipped with an Orca R-2 CCD camera (Hamamatsu Photonics, Japan). […] Endothelial spreading on topographic substrates in topographic chips was recorded in parallel time-lapse movies for up to 6 different substrates (a flat control and five different gratings). […]
as §2, with “This procedure eliminates the scattering generated by the gratings.” left out

For `Cc1ccc2c(c1)C(=O)C1(O)CCN(c3ccccc3)C1=N2` (stereo not drawn) [Blebbistatin], in assay [1], the “effect of inhibitor on time to onset of spreading / spreading” value was “no effect”. In addition, the “average alignment of inhibitor-treated cells to gratings” value in assay [2] was 26.5±6.5 °.
For the compound `O=S(=O)(c1cccc2c(I)cccc12)N1CCCNCC1` [ML-7], the “effect of inhibitor on time to onset of spreading / spreading” value in assay [1] is given as “No spreading could be measured”; in assay [1] (listed as ML7), “completely ablates HUVEC spreading”.
In the case of `C[C@@H](N)[C@H]1CC[C@H](C(=O)Nc2ccncc2)CC1` [Y27632], the “effect of inhibitor on time to onset of spreading / spreading” value in assay [1] was “no effect”. Also, the “average alignment of inhibitor-treated cells to gratings” value in assay [2] was 24.7±6.4 °.
